The target in one assay is T1, NLRP3 inflammasome (Homo sapiens, UniProt Q96P20).
T1 construct: endogenous in cells; host or cells: THP-1 cells (PMA-differentiated, stimulated with LPS and ATP)
The assay is described as follows: THP-1 IL-1β production inhibition test. Type of assay: cell-based. Particulars: PMA-treated THP-1 cells, LPS 50 ng/mL + ATP 5 mM, 2 hours, IL-1β in supernatant by ELISA. As for the experimental part: PMA (phorbol myristate acetate, SIGMA, P1585) was added to THP-1 cells in an amount of 50 ng/mL to culture the cells for 2 days at 37° C. […] LPS (Lipopolysaccharide, SIMGA, L2880) and ATP (Adenosine triphosphate, SIGMA, A2383) were added so that final concentrations become 50 ng/mL and 5 mM, respectively, followed by culturing at 37° C. for 2 hours. The supernatants were collected to measure the concentrations of IL-1β by ELISA (DuoSet ELISA human IL-1β, R&D Systems, DY201). The IL-1β concentrations were plotted against log concentrations of test compounds, and an IC50 value was calculated by sigmoid Emax model nonlinear regression analysis.
For orientation: An ELISA detects its analyte on a solid surface through an enzyme-linked reagent.

The test system of assay [1] is TNF-α production in THP-1 cells. The assay is described as follows: TNF-α production inhibition test. The note with it: Homo sapiens; PMA-treated THP-1 cells, LPS 50 ng/mL, 2 hours, TNF-α in supernatant by ELISA. Type of assay: cell-based. As for the experimental part: PMA (phorbol myristate acetate, SIGMA, P1585) was added to THP-1 cells in an amount of 50 ng/mL to culture the cells for 2 days at 37° C. The culture medium was replaced with a serum-free RPMI-1640 medium, and a compound with a known concentration was added thereto to culture the cells at 37° C. for 15 minutes. LPS (Lipopolysaccharide SIMGA, L2880) was added so that each final concentration becomes 50 ng/mL, followed by culturing at 37° C. for 2 hours. The supernatants were collected to measure the concentration of TNF-α by ELISA (DuoSet ELISA human TNF-α, R&D Systems, DY210). The TNF-α concentrations were plotted against log concentrations of test compounds, and an IC50 value was calculated by sigmoid Emax model nonlinear regression analysis.

T1 sequence (Q96P20 whole entry): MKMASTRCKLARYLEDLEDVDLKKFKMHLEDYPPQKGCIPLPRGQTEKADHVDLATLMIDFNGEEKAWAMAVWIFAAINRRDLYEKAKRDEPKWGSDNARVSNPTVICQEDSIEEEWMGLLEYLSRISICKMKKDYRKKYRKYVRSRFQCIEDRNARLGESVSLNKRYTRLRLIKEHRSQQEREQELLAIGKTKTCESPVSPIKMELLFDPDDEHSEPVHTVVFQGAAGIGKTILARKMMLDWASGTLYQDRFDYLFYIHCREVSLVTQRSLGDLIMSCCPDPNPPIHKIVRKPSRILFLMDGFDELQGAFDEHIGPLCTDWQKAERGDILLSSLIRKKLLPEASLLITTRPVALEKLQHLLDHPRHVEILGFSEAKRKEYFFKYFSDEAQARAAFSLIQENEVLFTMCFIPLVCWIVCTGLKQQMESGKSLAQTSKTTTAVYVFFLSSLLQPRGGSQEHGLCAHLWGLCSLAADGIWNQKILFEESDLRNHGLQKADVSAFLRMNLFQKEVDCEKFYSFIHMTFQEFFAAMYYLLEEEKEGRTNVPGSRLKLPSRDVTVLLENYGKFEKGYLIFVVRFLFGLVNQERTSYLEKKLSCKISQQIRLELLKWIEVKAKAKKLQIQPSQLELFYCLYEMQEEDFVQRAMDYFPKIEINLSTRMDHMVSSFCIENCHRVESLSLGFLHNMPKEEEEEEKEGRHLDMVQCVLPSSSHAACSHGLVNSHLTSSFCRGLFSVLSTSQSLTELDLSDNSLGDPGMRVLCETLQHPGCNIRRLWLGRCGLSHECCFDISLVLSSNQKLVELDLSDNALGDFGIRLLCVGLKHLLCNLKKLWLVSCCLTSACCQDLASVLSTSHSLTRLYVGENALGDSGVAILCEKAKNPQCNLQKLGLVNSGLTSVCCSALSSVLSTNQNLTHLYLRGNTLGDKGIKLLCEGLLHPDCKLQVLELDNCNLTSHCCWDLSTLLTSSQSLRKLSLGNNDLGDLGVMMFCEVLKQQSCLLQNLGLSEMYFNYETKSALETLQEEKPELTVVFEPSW

As to `Oc1cc(OC(F)F)ccc1-c1nnc(N[C@@H]2CCCC[C@H]2O)c2c1CCCC2` [Example 83, 5-(difluoromethoxy)-2-(4-{[(1R,2R)-2-hydroxycyclohexyl]amino}-5,6,7,8-tetrahydrophthalazin-1-yl)phenol], the half-inhibitory concentration (IC50) on NLRP3 inflammasome is 4.8 nM; in assay [1] it was at least 10000 nM.

For `CN1CCc2c(-c3ccc(C(F)(F)F)cc3O)nnc(N[C@@H]3CCCC[C@H]3O)c2C1` [Example 73, 2-(4-{[(1R,2R)-2-hydroxycyclohexyl]amino}-6-methyl-5,6,7,8-tetrahydropyrido[3,4-d]pyridazin-1-yl)-5-(trifluoromethyl)phenol], the 50% inhibitory concentration (IC50) on NLRP3 inflammasome is 7.6 nM; in assay [1], at least 10000 nM. As for `CN1CCC[C@@H](Nc2nnc(-c3ccc(C(F)(F)F)cc3O)c3c2COCC3)C1` [Example 125], the half-maximal inhibitory concentration (IC50) on NLRP3 inflammasome is 1.5 nM; in assay [1], at least 10000 nM. For `Oc1cc(C(F)(F)F)ccc1-c1nnc(N[C@@H]2CCCC[C@H]2O)c2c1CSC2` [Example 111, 2-(4-{[(1R,2R)-2-hydroxycyclohexyl]amino}-5,7-dihydrothieno[3,4-d]pyridazin-1-yl)-5-(trifluoromethyl)phenol] the same measures were 2.9 nM and at least 10000 nM. The like results for `Oc1cc(Cl)ccc1-c1nnc(N[C@@H]2CCCC[C@H]2O)c2c1CCOC2` [Example 70, 5-chloro-2-(4-{[(1R,2R)-2-hydroxycyclohexyl]amino}-7,8-dihydro-5H-pyrano[3,4-d]pyridazin-1-yl)phenol] were, in that order, 2.1 nM and at least 10000 nM. The like results for `Oc1cc(OC(F)F)ccc1-c1nnc(N[C@@H]2CCCC[C@H]2O)c2c1CCOC2` [Example 88, 5-(difluoromethoxy)-2-(4-{[(1R,2R)-2-hydroxycyclohexyl]amino}-7,8-dihydro-5H-pyrano[3,4-d]pyridazin-1-yl)phenol] were, in that order, 1.8 nM and at least 10000 nM. For `CN1Cc2c(N[C@@H]3CCCC[C@H]3O)nnc(-c3ccc(C(F)(F)F)cc3O)c2C1` [Example 99, 2-(4-{[(1R,2R)-2-hydroxycyclohexyl]amino}-6-methyl-6,7-dihydro-5H-pyrrolo[3,4-d]pyridazin-1-yl)-5-(trifluoromethyl)phenol], the half-maximal inhibitory concentration (IC50) is 16 nM at NLRP3 inflammasome and at least 10000 nM in assay [1]. The like results for `Oc1cc(C(F)(F)F)ccc1-c1nnc(N[C@@H]2CCCC[C@@H]2O)c2c1CCOC2` [4(1), 2-(4-{[(1R,2S)-2-hydroxycyclohexyl]amino}-7,8-dihydro-5H-pyrano[3,4-d]pyridazin-1-yl)-5-(trifluoromethyl)phenol] were, in that order, 2.5 nM and at least 10000 nM. Consider `Oc1cc(C(F)(F)F)c(F)cc1-c1nnc(N[C@@H]2CCCC[C@H]2O)c2c1CCOC2` [Example 86], for which the IC50 at NLRP3 inflammasome came to 11 nM. The same measure, in the same setting: with `C[C@]1(O)C[C@@H](Nc2nnc(-c3ccc(OC(F)(F)F)cc3O)c3c2CCOC3)C1` [57(2)] the figure was 94 nM; with `C[C@]1(O)C[C@@H](Nc2nnc(-c3ccc(C(F)(F)F)cc3O)c3c2CCCC3)C1` [Example 29], 18 nM. `Oc1cc(C(F)(F)F)ccc1-c1nnc(N[C@@H]2CCCC[C@H]2O)c2c1CCSC2` [Example 103]: the IC50 at NLRP3 inflammasome was determined as 4.4 nM. As to `Oc1cc(C(F)(F)F)ccc1-c1nnc(N[C@@H]2CCCC[C@H]2O)c2c1CCOCC2` [Example 5, 2-(4-{[(1R,2R)-2-hydroxycyclohexyl]amino}-5,6,8,9-tetrahydrooxepino[4,5-d]pyridazin-1-yl)-5-(trifluoromethyl)phenol], the IC50 on NLRP3 inflammasome was 4.7 nM; in assay [1], at least 10000 nM. With `Oc1cc(OC(F)F)ccc1-c1nnc(N[C@@H]2CCCC[C@H]2O)c2c1CCCOC2` [Example 116], the IC50 at NLRP3 inflammasome was 4.4 nM. Still for that read-out and setting: with `CN1CCc2c(N[C@@H]3CCCC[C@H]3O)nnc(-c3ccc(C(F)(F)F)cc3O)c2C1` [Example 75] the figure was 54 nM. Same read-out and setting: next, `Oc1cc(C(F)(F)F)ccc1-c1nnc(N[C@@H]2CCC[C@H](O)C2)c2c1CCOC2` [Example 104]: 3.5 nM; `Oc1cc(C(F)(F)F)ccc1-c1nnc(N[C@@H]2CCCC[C@H]2O)c2c1COCC2` [2(2), 2-(1-{[(1R,2R)-2-hydroxycyclohexyl]amino}-7,8-dihydro-5H-pyrano[3,4-d]pyridazin-4-yl)-5-(trifluoromethyl)phenol]: 14 nM. Consider `CN1CCc2c(-c3ccc(OC(F)(F)F)cc3O)nnc(N[C@@H]3CCCC[C@H]3O)c2C1` [Example 76], for which, at NLRP3 inflammasome, the half-inhibitory concentration (IC50) was 23 nM.

As for `O=S1(=O)CCC(Oc2nnc(-c3ccc(C(F)(F)F)cc3O)c3ccccc23)CC1` [Example 10], the concentration for half-maximal inhibition (IC50) at NLRP3 inflammasome turned out to be 24 nM. Still for that read-out and setting: next, `C[C@]1(O)C[C@@H](Nc2nnc(-c3ccc(OC(F)(F)F)cc3O)c3c2COCC3)C1` [57(1)]: 19 nM. Same read-out and setting: next, `Oc1cc(OC(F)(F)F)ccc1-c1nnc(N[C@@H]2CCOC[C@H]2O)c2c1CCCCC2` [Example 45]: 14 nM.

Regarding `C[C@]1(O)C[C@@H](Nc2nnc(-c3ccc(C(F)(F)F)cc3O)c3c2CCC3)C1` [Example 59], at NLRP3 inflammasome, the 50% inhibitory concentration (IC50) came out at 40 nM. On the same count and under the same terms, with `C[C@]1(O)C[C@@H](Nc2nnc(-c3ccc(C(F)(F)F)cc3O)c3c2CCCCC3)C1` [Example 48] the figure was 36 nM; with `Oc1cc(C(F)(F)F)ccc1-c1nnc(N[C@@H]2CCCC[C@H]2O)c2sccc12` [Example 94, 2-(7-{[(1R,2R)-2-hydroxycyclohexyl]amino}thieno[2,3-d]pyridazin-4-yl)-5-(trifluoromethyl)phenol], 5.1 nM; with `Oc1cc(C(F)(F)F)ccc1-c1nnc(N[C@@H]2CCCC[C@H]2O)c2ccccc12` [Example 15], 2.8 nM. Still for that read-out and setting: next, `N[C@@H]1CCCC[C@H]1Nc1nnc(-c2ccc(C(F)(F)F)cc2O)c2c1CCOC2` [Example 95, 2-(1-{[(1R,2R)-2-aminocyclohexyl]amino}-7,8-dihydro-5H-pyrano[3,4-d]pyridazin-4-yl)-5-(trifluoromethyl)phenol]: 61 nM; `Oc1cc(C(F)(F)F)ccc1-c1nnc(N[C@@H]2CCOC[C@H]2O)c2c1CCCC2` [Example 35]: 16 nM; `Oc1cc(C2CC2)ccc1-c1nnc(N[C@@H]2CCCC[C@H]2O)c2c1CCCC2` [Example 51]: 13 nM. Same read-out and setting: next, `Oc1cc(C(F)(F)F)ccc1-c1nnc(N[C@@H]2CCCC[C@H]2O)c2c1CNC2` [Example 98, 2-(4-{[(1R,2R)-2-hydroxycyclohexyl]amino}-6,7-dihydro-5H-pyrrolo[3,4-d]pyridazin-1-yl)-5-(trifluoromethyl)phenol]: 95 nM; `Cc1ccc(-c2nnc(N[C@@H]3CCCC[C@H]3O)c3c2CCCC3)c(O)c1` [Example 26]: 15 nM; `Oc1cc(C(F)(F)F)ccc1-c1nnc(N[C@@H]2CCCC[C@H]2O)c2c1CCCCC2` [Example 34]: 3.9 nM. With `C[C@@H](O)CCc1nnc(-c2ccc(C(F)(F)F)cc2O)c2c1CCC2` [Example 22], the IC50 on NLRP3 inflammasome worked out at 69 nM.

Usually IC50 stands for the concentration that gives 50% inhibition.

For the origin of these results see patent publication US20250084092A1, “ANNULATED PYRIDAZINE COMPOUND” (Nico Therapeutics, Inc., priority 2021, published 2025).
